Reference: article PMC8709454, “Enhanced Skin Delivery of Therapeutic Peptides Using Spicule-Based Topical Delivery Systems” (Pharmaceutics, 2021)

System: imiquimod-induced psoriatic mice
Conditions: subcutaneous injection of CysA (3 mg/mL, 100 μL, 7 times, day 1 to day 7); psoriasis mice; HPLC; mean ± SD
Method: BALB/c mice were used to develop the psoriatic model. […] The back hair of the mice was shaved.
Briefly, blood (500 μL) was collected from the mice orbit and mixed with 4 mL ether. […] Mice skin, liver, and kidney samples were collected and weighed. […] In addition, the mice skin in the treatment area and the non-treated area was cryo-sectioned and stained with hematoxylin and eosin. The epidermal thickness of each skin sample was measured at three random sites with ImageJ software (V1.8.0).

Substance: cyclosporine A [CysA]
- drug accumulation in mice kidney: 64.07 ± 10.25 (μg/g)/mg
